From patent US10350210B2, “EGFR and ALK dual inhibitor” (PRECEDO PHARMACEUTICALS CO., LTD, priority 2015, dated 2019) come the findings set out here.

Data set [1] relates to H3255. Nature of the data set: Effect on cell cycle (PI staining, flow cytometer), H3255. The format is cell-based. The note with it: H3255 (EGFR L858R), 24 hours. From the text:
In order to study which growth phase the cell was halted after administration of the drugs, five cell lines including non-small cell lung cancer cell line A549 (expressing wild-type EGFR gene), non-small cell lung cancer cell line H1975 (expressing EGFR L858R/T790M double mutant gene), non-small cell Lung cancer cell line PC-9 (expressing EGFR delE746_A750 mutant gene), non-small cell lung cancer cell line H3255 (expressing EGFR L858R mutant gene) and non-small cell lung cancer cell NCI-H3122 (expressing ALK gene) were tested for effect of Compound 1 on cell cycle distribution. Two cell lines including non-small cell lung cancer cell NCI-H3122 (expressing ALK gene) and non-small cell lung cancer cell H1975 (expressing EGFR L858R/T790M double mutant gene) were tested for effect of Compound 10 on cell cycle distribution. […]
In general terms: A flow cytometer gives signals particle by particle.

Data set [2] relates to non-small cell lung cancer cell H1975 subcutaneous tumors. Nature of the data set: Mouse tumor model of non-small cell lung cancer cell H1975. It is filed as in vivo. Conditions: for tumor inhibition rate: Bal b/c mice. Here is the method: Similarly, 27 Bal b/c female mice, 4-6 weeks old, were purchased from Shanghai SLAC Laboratory Animal Co., Ltd., and maintained in an SPF laboratory. Drinking water and bedding were both sterilized by autoclaving. All operations involving the mice were performed under aseptic conditions. At day 0, 5×10^6 non-small cell lung cancer cells H1975 (purchased from ATCC) were injected subcutaneously into the left flank of all mice. At day 15, all mice were divided into three groups (9 mice per group), and the first group of mice were orally administered with methyl cellulose (HKI) solvent, the second group of mice were orally administered with Compound 1 at a dose of 25 mg/kg mouse weight, and the third group of mice were orally administered with Compound 1 at a dose of 50 mg/kg mouse weight daily. Starting from the administration, the length/width of the subcutaneous tumor was measured daily with a vernier caliper, and the weight of the mice was recorded daily to observe the effect of Compound 1 on the body weight of the mice. The mice were sacrificed at day 36 and the subcutaneous tumors were collected. The tumors were weighed, and then the tumor tissues were used to prepare protein lysates for use. The growth trend of the subcutaneous tumor within 16-36 days was plotted, wherein the tumor volume was calculated as length×width×width/2 mm^3.

Data set [3] deals with BaF3-FL-EGFR-T790M-L858R. Nature of the data set: Cell growth (Cell Titer-Glo viability), BaF3-FL-EGFR-T790M-L858R. The format is cell-based. The note with it: Mus musculus; BaF3-FL-EGFR-T790M-L858R (EGFR T790M/L858R mutant kinase), 72 hrs. The procedure:
By testing the effect of the novel kinase inhibitors on the proliferation of cancer cells, the selectivity of the compounds of the present disclosure in inhibiting the proliferation of cancer cells was further assessed. […]
The number of viable cells was determined quantitatively by a microplate reader using Cell Titer-Glo® (Promega, US) chemiluminescence cell viability assay kit.

Consider `C=CC(=O)Nc1cc(Nc2ncc(Cl)c(Nc3ccccc3S(=O)(=O)C(C)C)n2)c(OC)cc1N1CCN(CC)CC1` [Compound 1, N-(5-(5-chloro-4-(2-(isopropylsulfonyl)phenylamino)pyrimidin-2-ylamino)-2-(4-ethylpiperazin-1-yl)-4-methoxyphenyl)acrylamide], for which the “effect on cell cycle distribution” value in data set [1] was “halt the cells in G0-G1 phase”. In addition, the tumor inhibition rate in data set [2] (oral daily 25 mg/kg, on the second day of administration) worked out at 70%; in data set [2] (oral daily 50 mg/kg, after 8 days of administration), 81.7%. For the same molecule, the “body weight of the mice” value in data set [2] (oral daily 25 mg/kg) and in data set [2] (oral daily 50 mg/kg) was “did not decrease” each time.

For `C=CC(=O)Nc1cc(Nc2ncc(Cl)c(Nc3ccccc3S(=O)(=O)C(C)C)n2)c(OC)cc1N1CCCN(C)CC1` [Compound 10, N-(5-(5-chloro-4-(2-(isopropylsulfonyl)phenylamino)pyrimidin-2-ylamino)-4-methoxy-2-(4-methyl-1,4-homopiperazin-1-yl)phenyl)acrylamide], the 50% growth inhibitory concentration (GI50) (usually the concentration at which growth is held to half of that of the control) in data set [3] was found to be 2 nM.
